“Also recorded” adds a separate entry of the source.
Test system: breast cancer cell lines
Experiment: Cell growth inhibition assay (Cell Titer Glo, 72 h drug exposure, GI50) across a breast cancer cell line panel, with subtype, copy number and growth rate association analysis
Type: cell-based, human
Conditions: for Association of response with growth rate (doubling time): 2-way ANCOVA of cell line class and growth rate; for Molecular Subtype in which the compound shows Preferential Activity: Table 7 summary; for Subtype-preferential activity in breast cancer cell lines (in words): running text and figure legends, response as −log10(GI50); for Subtype specificity: Table 1, most sensitive cell line subtype, q<0.10 deemed significant; for Association of 17q12 (ERBB2) amplification with compound response / Association of 20q13 (STK15/AURKA) amplification with compound response: high amplification vs. low or no amplification, t-test; for Response of the cell line panel as a whole: compounds excluded from further analysis

SMILES	Subtype specificity	Subtype-preferential activity in breast cancer cell lines (in words)	also measured
O=c1[nH]cc(F)c(=O)[nH]1 [5-FU, Fluorouracil]			Association of response with growth rate (doubling time): strong effects of both subtype and growth rate on response; Association of response with growth rate (doubling time) (listed as 5-florouracil): strong significance in the ANCOVA model for both class and doubling time; also recorded: decreases as doubling time increases; Association of response with growth rate (doubling time) (listed as Fluorouracil): active against cell lines with rapid growth rates; also recorded: active against cell lines that grow more quickly; Shift of mean sensitivity between luminal and basal subtypes (ANCOVA model, FIG. 4B): shifts by approximately one log; Molecular Subtype in which the compound shows Preferential Activity: KI67+ tumors; Subtype-preferential activity in breast cancer cell lines (in words) (listed as 5-florouracil): not significant in the subtype test alone; Subtype-preferential activity in breast cancer cell lines (in words) (listed as Fluoruracil): more effective against basal cell lines (both triple negative and claudin-low) than against luminal cell lines
C=CCNC1=C2C[C@@H](C)C[C@H](OC)[C@H](O)[C@@H](C)/C=C(\C)[C@H](OC(N)=O)[C@@H](OC)/C=C\C=C(/C)C(=O)NC(=CC1=O)C2=O [17-AAG]	ERBB2AMP		Association of 17q12 (ERBB2) amplification with compound response: associated with sensitivity
COc1cc2ncnc(Nc3cccc(Cl)c3)c2cc1OC [AG1478]	ERBB2AMP		
CN(C)C/C=C/C(=O)Nc1cc2c(Nc3ccc(F)c(Cl)c3)ncnc2cc1O[C@H]1CCOC1 [BIBW 2992]	ERBB2AMP		Association of 17q12 (ERBB2) amplification with compound response: associated with sensitivity
CCNCCCNC/C=C\CNCCCNCC [CGC-11047]	Basal		
N.N.[Cl][Pt][Cl] [Cisplatin]	Basal/Claudin-low	basal cell line sensitivity; also recorded: preferential activity in basal or claudin-low cell lines	
CC(=O)O[C@@]12CO[C@@H]1C[C@H](O)[C@@]1(C)C(=O)[C@H](O)C3=C(C)[C@@H](OC(=O)[C@H](O)[C@@H](NC(=O)OC(C)(C)C)c4ccccc4)C[C@@](O)([C@@H](OC(=O)c4ccccc4)[C@H]21)C3(C)C [Docetaxel]	Basal/Claudin-low	preferential activity in basal or claudin-low cell lines	
C#Cc1cccc(Nc2ncnc3cc(OCCOC)c(OCCOC)cc23)c1 [Erlotinib]	Basal	preferentially active in basal class cell lines	Molecular Subtype in which the compound shows Preferential Activity: Basal (ER−/PR−/HER2−Claudin+)
COc1cc([C@@H]2c3cc4c(cc3[C@@H](O[C@@H]3O[C@@H]5CO[C@@H](C)O[C@H]5[C@H](O)[C@H]3O)[C@H]3COC(=O)[C@H]23)OCO4)cc(OC)c1O [Etoposide]	Claudin-low	preferential activity in basal or claudin-low cell lines	
O=C1c2ccccc2-[n+]2ccc3c([nH]c4ccccc43)c21 [Fascaplysin]	Luminal		
CCn1cc(-c2ccnc3[nH]c(-c4cccc(CN(C)C)c4)cc23)c(-c2ccc(NC(=O)N(C)C)cc2)n1 [GSK1070916]	Claudin-low	more active against basal and/or claudin-low cell lines	Molecular Subtype in which the compound shows Preferential Activity: Claudin-low; also recorded: Tumors with low or no 20q13 amplification; Association of 20q13 (STK15/AURKA) amplification with compound response: is associated with; also recorded: associated with resistance; Association of 20q13 (STK15/AURKA) amplification with compound response (listed as GSK.AUR1): less effective in tumors that have genomic DNA copy number amplifications at 20q13; Subtype-preferential activity in breast cancer cell lines (in words) (listed as GSK.AUR1): preferentially active against Claudin-low cell lines
COc1ncc(-c2ccc3nccc(-c4ccnnc4)c3c2)cc1NS(=O)(=O)c1ccc(F)cc1F [GSK2126458]	Luminal/ERBB2AMP		
COc1cc2ncnc(Nc3ccc(F)c(Cl)c3)c2cc1OCCCN1CCOCC1 [Gefitinib]	ERBB2AMP		Association of 17q12 (ERBB2) amplification with compound response: associated with sensitivity
Cc1[nH]c2ccccc2c1CCNCc1ccc(/C=C/C(=O)NO)cc1 [LBH589]	Luminal		
CS(=O)(=O)CCNCc1ccc(-c2ccc3ncnc(Nc4ccc(OCc5cccc(F)c5)c(Cl)c4)c3c2)o1 [Lapatinib]	Luminal/ERBB2AMP		
NS(=O)(=O)c1ccc(Nc2nc(OCC3CCCCC3)c3[nH]cnc3n2)cc1 [NU6102]			Association of 17q12 (ERBB2) amplification with compound response: associated with resistance
CCN(CC)CCCCNc1ncc2cc(-c3cc(OC)cc(OC)c3)c(NC(=O)NC(C)(C)C)nc2n1 [PD173074]	Claudin-low		
O=C(Nc1cc(Cl)cc2c1[nH]c1cnccc12)c1cccnc1 [PS1145]			Response of the cell line panel as a whole: almost none of the cell lines in the panel responded strongly
O=c1[nH]c2ccccc2n1C1CCN(Cc2ccc(-c3nc4cc5[nH]cnc5cc4nc3-c3ccccc3)cc2)CC1 [Sigma AKT1-2 inhibitor]	Luminal	Luminal and ERBB2AMP cell lines preferentially respond	
CO[C@H]1C[C@@H]2CC[C@@H](C)[C@@](O)(O2)C(=O)C(=O)N2CCCC[C@H]2C(=O)O[C@H]([C@H](C)C[C@@H]2CC[C@@H](OC(=O)C(C)(CO)CO)[C@H](OC)C2)CC(=O)[C@H](C)/C=C(\C)[C@@H](O)[C@@H](OC)C(=O)[C@H](C)C[C@H](C)/C=C/C=C/C=C/1C [Temsirolimus]	Luminal		
CC(/C=C/C(=O)NO)=C\[C@@H](C)C(=O)c1ccc(N(C)C)cc1 [Trichostatin A]	Luminal	preferentially active in luminal class cell lines	Molecular Subtype in which the compound shows Preferential Activity: Luminal (ER+/PR+)
Cc1cc(Nc2cc(N3CCN(C)CC3)nc(Sc3ccc(NC(=O)C4CC4)cc3)n2)n[nH]1 [VX-680]	not ERBB2AMP		
O=C(CCCCCCC(=O)Nc1ccccc1)NO [Vorinostat]	Luminal	preferentially active in luminal class cell lines	Molecular Subtype in which the compound shows Preferential Activity: Luminal (ER+/PR+)
O=c1cc(-c2ccccc2)oc2cc(O)c(O)c(O)c12 [baicalein]			Response of the cell line panel as a whole: almost none of the cell lines in the panel responded strongly

Reference: US9506926B2, “Molecular predictors of therapeutic response to specific anti-cancer agents” (The Regents of the University of California, priority 2011, dated 2016)
